# Literature values in PubChem BioAssay AID1259409 (Chemical Carcinogenesis Research Information System (CCRIS), 2018).
# Tested on: rodent chemically induced tumor inhibition, incidence and multiplicity
# Experiment: CCRIS tumor inhibitor studies
# Conditions: Route [Inhibitor]: ORAL, Promoter: NONE USED
smiles,measurement,setting,value
[Mg+2],"tumour outcome (control, treated, inhibition, significance)","Carcinogen: 7,12-DIMETHYLBENZ[A]ANTHRACENE, 57-97-6, Dose [Inhibitor]: 0, 50 UG/ML IN DRINKING WATER FROM 40-90 D OF AGE THEN 0, 30 UG/ML FROM 90-180 D OF AGE AND 0, 20 UG/ML FROM 180-240 D O, Dose [Inhibitor]: 0, 50 UG/ML IN DRINKING WATER FROM 40-90 D OF AGE THEN 0, 30 UG/ML FROM 90-180 D OF AGE AND 0, 20 UG/ML FROM 180-240 D O, Species: RAT, Strain/Sex: SPRAGUE DAWLEY/FEMALE, Target Tissue: Type of Lesion: MAMMARY GLAND: ADENOCARCINOMA, FIBROADENOMA, Dose [Carcinogen]: 5 MG IN 0.2 ML SESAME OIL 1/2 D FOR 12 D BEGINNING AT 50 D OF AGE","100%, 46%, 54%, p<0.001"
CCCCNC(=O)/C=C(C)/C=C/C=C(C)/C=C/C1=C(C)CCCC1(C)C,"tumour outcome (control, treated, inhibition, significance)","Carcinogen: N-BUTYL-N-(4-HYDROXYBUTYL)NITROSAMINE, 3817-11-6, Dose [Inhibitor]: 1.5 MMOL/KG DIET DAILY FOR 133 D STARTING ONE WK AFTER THE FINAL CARCINOGEN DOSE (STUDY DURATION: 190 D), Species: MOUSE, Strain/Sex: BDF/MALE, Target Tissue: Type of Lesion: URINARY BLADDER: TRANSITIONAL CELL CARCINOMA, Dose [Carcinogen]: 7.5 MG 1/WK FOR 8 WK","21/100 (21%), 19/100 (19%), 10%, not significant"
same,"tumour outcome (control, treated, inhibition, significance)","Carcinogen: N-BUTYL-N-(4-HYDROXYBUTYL)NITROSAMINE, 3817-11-6, Dose [Inhibitor]: 1.5 MMOL/KG IN DIET FOR 133 D STARTING 1 WK AFTER THE LAST CARCINOGEN DOSE (STUDY DURATION: 190 D), Species: MOUSE, Strain/Sex: DBF1/MALE, Target Tissue: Type of Lesion: URINARY BLADDER: TRANSITIONAL CELL CARCINOMA, Dose [Carcinogen]: 7.5 MG 1/WK FOR 8 WK","21/100 (21%), 19/100 (19%), 10%, not significant"
CC1=C(/C=C/C(C)=C/C=C/C(C)=C/C(=O)NCCCO)C(C)(C)CCC1,"tumour outcome (control, treated, inhibition, significance)","Carcinogen: N-BUTYL-N-(4-HYDROXYBUTYL)NITROSAMINE, 3817-11-6, Dose [Inhibitor]: 1.5 MMOL/KG/D IN DIET FOR 108 D STARTING 1 WK POST CARCINOGEN TREATMENT (STUDY DURATION: 171 D), Species: MOUSE, Strain/Sex: BDF/MALE, Target Tissue: Type of Lesion: URINARY BLADDER: TRANSITIONAL CELL CARCINOMA, Dose [Carcinogen]: 5 MG 2/WK FOR 9 WK","31/55 (56%), 28/54 (51%), 9%, not significant"
same,"tumour outcome (control, treated, inhibition, significance)","Carcinogen: N-NITROSOBIS(2-OXOPROPYL)AMINE, 60599-38-4, Dose [Inhibitor]: 0.25 MMOL/KG OF DIET FOR 357 D STARTING 2 WK AFTER LAST CARCINOGEN DOSE AND INTERRUPTED BY A 1 WK REST PERIOD OF VEHICLE, Species: HAMSTER, Strain/Sex: SYRIAN/FEMALE, Target Tissue: Type of Lesion: LIVER: HEPATOCELLULAR CARCINOMA, Dose [Carcinogen]: 20 MG/KG INJECTION GIVEN TWICE 1 WK APART","5%, 42%, -740%, not calculated"
same,"tumour outcome (control, treated, inhibition, significance)","Carcinogen: N-NITROSOBIS(2-OXOPROPYL)AMINE, 60599-38-4, Dose [Inhibitor]: 0.25 MMOL/KG OF DIET FOR 357 D STARTING 2 WK AFTER LAST CARCINOGEN DOSE AND INTERRUPTED BY A 1 WK REST PERIOD OF VEHICLE, Species: HAMSTER, Strain/Sex: SYRIAN/FEMALE, Target Tissue: Type of Lesion: PANCREAS: CARCINOMA, Dose [Carcinogen]: 20 MG/KG INJECTION GIVEN TWICE 1 WK APART","38%, 32%, 16%, not calculated"
same,"tumour outcome (control, treated, inhibition, significance)","Carcinogen: N-NITROSOBIS(2-OXOPROPYL)AMINE, 60599-38-4, Dose [Inhibitor]: 0.25 MMOL/KG OF DIET FOR 357 D STARTING 2 WK AFTER LAST CARCINOGEN DOSE AND INTERRUPTED BY A 1 WK REST PERIOD OF VEHICLE, Species: HAMSTER, Strain/Sex: SYRIAN/MALE, Target Tissue: Type of Lesion: LIVER: HEPATOCELLULAR CARCINOMA, Dose [Carcinogen]: 20 MG/KG INJECTION GIVEN TWICE 1 WK APART","7%, 0%, 100%, not calculated"
same,"tumour outcome (control, treated, inhibition, significance)","Carcinogen: N-NITROSOBIS(2-OXOPROPYL)AMINE, 60599-38-4, Dose [Inhibitor]: 0.25 MMOL/KG OF DIET FOR 357 D STARTING 2 WK AFTER LAST CARCINOGEN DOSE AND INTERRUPTED BY A 1 WK REST PERIOD OF VEHICLE, Species: HAMSTER, Strain/Sex: SYRIAN/MALE, Target Tissue: Type of Lesion: PANCREAS: CARCINOMA, Dose [Carcinogen]: 20 MG/KG INJECTION GIVEN TWICE 1 WK APART","34%, 27%, 21%, not calculated"
same,"tumour outcome (control, treated, inhibition, significance)","Carcinogen: N-NITROSOBIS(2-OXOPROPYL)AMINE, 60599-38-4, Dose [Inhibitor]: 0.5 MMOL/KG OF DIET FOR 357 D STARTING 2 WK AFTER LAST CARCINOGEN DOSE AND INTERRUPTED BY A 1 WK REST PERIOD OF VEHICLE-, Species: HAMSTER, Strain/Sex: SYRIAN/FEMALE, Target Tissue: Type of Lesion: LIVER: HEPATOCELLULAR CARCINOMA, Dose [Carcinogen]: 20 MG/KG INJECTION GIVEN TWICE 1 WK APART","5%, 9%, -80%, not calculated"
same,"tumour outcome (control, treated, inhibition, significance)","Carcinogen: N-NITROSOBIS(2-OXOPROPYL)AMINE, 60599-38-4, Dose [Inhibitor]: 0.5 MMOL/KG OF DIET FOR 357 D STARTING 2 WK AFTER LAST CARCINOGEN DOSE AND INTERRUPTED BY A 1 WK REST PERIOD OF VEHICLE-, Species: HAMSTER, Strain/Sex: SYRIAN/FEMALE, Target Tissue: Type of Lesion: PANCREAS: CARCINOMA, Dose [Carcinogen]: 20 MG/KG INJECTION GIVEN TWICE 1 WK APART","38%, 27%, 29%, not calculated"
same,"tumour outcome (control, treated, inhibition, significance)","Carcinogen: N-NITROSOBIS(2-OXOPROPYL)AMINE, 60599-38-4, Dose [Inhibitor]: 0.5 MMOL/KG OF DIET FOR 357 D STARTING 2 WK AFTER LAST CARCINOGEN DOSE AND INTERRUPTED BY A 1 WK REST PERIOD OF VEHICLE-, Species: HAMSTER, Strain/Sex: SYRIAN/MALE, Target Tissue: Type of Lesion: LIVER: HEPATOCELLULAR CARCINOMA, Dose [Carcinogen]: 20 MG/KG INJECTION GIVEN TWICE 1 WK APART","7%, 12%, -71%, not calculated"
same,"tumour outcome (control, treated, inhibition, significance)","Carcinogen: N-NITROSOBIS(2-OXOPROPYL)AMINE, 60599-38-4, Dose [Inhibitor]: 0.5 MMOL/KG OF DIET FOR 357 D STARTING 2 WK AFTER LAST CARCINOGEN DOSE AND INTERRUPTED BY A 1 WK REST PERIOD OF VEHICLE-, Species: HAMSTER, Strain/Sex: SYRIAN/MALE, Target Tissue: Type of Lesion: PANCREAS: CARCINOMA, Dose [Carcinogen]: 20 MG/KG INJECTION GIVEN TWICE 1 WK APART","34%, 40%, -18%, not calculated"
